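Five compound concentrations were applied to cells in 96-well plates for 48 hours; endpoints were derived by simple linear interpolation of the resulting dose-response curve. At the TGI there is no net growth.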
Experiments:
Test in all cases: NCI anticancer screen, dose series, 48 h
ACHN renal = test system: ACHN renal
CCRF-CEM leukemia = test system: CCRF-CEM leukemia
COLO 205 colon = test system: COLO 205 colon
HCT-116 colon = test system: HCT-116 colon
HS 578T breast = test system: HS 578T breast
HT29 colon = test system: HT29 colon
M14 melanoma = test system: M14 melanoma
MDA-MB-231 breast = test system: MDA-MB-231 breast
MOLT-4 leukemia = test system: MOLT-4 leukemia
NCI-H460 lung = test system: NCI-H460 lung
NCI-H522 lung = test system: NCI-H522 lung
OVCAR-5 ovarian = test system: OVCAR-5 ovarian
RPMI-8226 leukemia = test system: RPMI-8226 leukemia
RXF 393 renal = test system: RXF 393 renal
SF-295 CNS = test system: SF-295 CNS
SK-MEL-5 melanoma = test system: SK-MEL-5 melanoma
SN12C renal = test system: SN12C renal
K-562 leukemia = test system: K-562 leukemia
OVCAR-4 ovarian = test system: OVCAR-4 ovarian

**Q.** CC(C)=NNc1cnnc2ccc([N+](=O)[O-])cc12 was tested. Which TGI (ACHN renal) did it give?
**A.** > 100 µM

**Q.** What about the TGI (CCRF-CEM leukemia) of the same compound?
**A.** > 100 µM

**Q.** What about the TGI (COLO 205 colon) of the same compound?
**A.** > 100 µM

**Q.** What about the TGI (HCT-116 colon) of the same compound?
**A.** > 100 µM

**Q.** What about the TGI (HS 578T breast) of the same compound?
**A.** > 100 µM

**Q.** And the TGI (HT29 colon)?
**A.** > 100 µM

**Q.** What about the TGI (M14 melanoma) of the same compound?
**A.** > 100 µM

**Q.** And the TGI (MDA-MB-231 breast)?
**A.** > 100 µM

**Q.** And the TGI (MOLT-4 leukemia)?
**A.** > 100 µM

**Q.** And the TGI (NCI-H460 lung)?
**A.** > 100 µM

**Q.** And the TGI (NCI-H522 lung)?
**A.** 52 µM

**Q.** What about the TGI (OVCAR-5 ovarian) of the same compound?
**A.** > 100 µM

**Q.** And the TGI (RPMI-8226 leukemia)?
**A.** > 100 µM

**Q.** And the TGI (RXF 393 renal)?
**A.** > 100 µM

**Q.** And the TGI (SF-295 CNS)?
**A.** > 100 µM

**Q.** And the TGI (SK-MEL-5 melanoma)?
**A.** > 100 µM

**Q.** What about the TGI (SN12C renal) of the same compound?
**A.** > 100 µM

**Q.** For CCN(CC)c1ccc(/C=c2\nc(-c3ccccc3)n3c2nc2ccccc23)cc1, which TGI (ACHN renal) is on record?
**A.** 88.3 µM

**Q.** What about the TGI (CCRF-CEM leukemia) of the same compound?
**A.** 11.7 µM

**Q.** What about the TGI (COLO 205 colon) of the same compound?
**A.** 20.1 µM

**Q.** What about the TGI (HCT-116 colon) of the same compound?
**A.** 18.8 µM

**Q.** And the TGI (HS 578T breast)?
**A.** > 100 µM

**Q.** And the TGI (HT29 colon)?
**A.** 5.98 µM

**Q.** And the TGI (K-562 leukemia)?
**A.** > 100 µM

**Q.** And the TGI (M14 melanoma)?
**A.** 37.9 µM

**Q.** And the TGI (MDA-MB-231 breast)?
**A.** > 100 µM

**Q.** And the TGI (MOLT-4 leukemia)?
**A.** > 100 µM

**Q.** What about the TGI (NCI-H460 lung) of the same compound?
**A.** > 100 µM

**Q.** What about the TGI (OVCAR-4 ovarian) of the same compound?
**A.** 32.2 µM

**Q.** What about the TGI (OVCAR-5 ovarian) of the same compound?
**A.** > 100 µM

**Q.** And the TGI (RPMI-8226 leukemia)?
**A.** 6.3 µM

**Q.** And the TGI (RXF 393 renal)?
**A.** 61 µM

**Q.** And the TGI (SF-295 CNS)?
**A.** 45.8 µM

**Q.** And the TGI (SK-MEL-5 melanoma)?
**A.** 21.9 µM

**Q.** What about the TGI (SN12C renal) of the same compound?
**A.** > 100 µM

**Q.** Cc1c(C)c2c(c(N)c1C#N)C(=O)N(OS(=O)(=O)c1ccccc1)C2=O was tested. Which TGI (ACHN renal) did it give?
**A.** 33.1 µM

**Q.** What about the TGI (CCRF-CEM leukemia) of the same compound?
**A.** > 100 µM

**Q.** And the TGI (COLO 205 colon)?
**A.** 45.3 µM

**Q.** And the TGI (HCT-116 colon)?
**A.** 68.1 µM

**Q.** And the TGI (HS 578T breast)?
**A.** > 100 µM

**Q.** And the TGI (K-562 leukemia)?
**A.** 43.4 µM

**Q.** What about the TGI (M14 melanoma) of the same compound?
**A.** 41.6 µM

**Q.** What about the TGI (MDA-MB-231 breast) of the same compound?
**A.** > 100 µM

**Q.** And the TGI (MOLT-4 leukemia)?
**A.** 87 µM

**Q.** And the TGI (NCI-H460 lung)?
**A.** > 100 µM

**Q.** What about the TGI (NCI-H522 lung) of the same compound?
**A.** 34 µM

**Q.** And the TGI (OVCAR-4 ovarian)?
**A.** 41.3 µM

**Q.** What about the TGI (OVCAR-5 ovarian) of the same compound?
**A.** > 100 µM

**Q.** What about the TGI (RPMI-8226 leukemia) of the same compound?
**A.** 37.8 µM

**Q.** And the TGI (RXF 393 renal)?
**A.** 30.7 µM

**Q.** And the TGI (SF-295 CNS)?
**A.** > 100 µM

**Q.** What about the TGI (SK-MEL-5 melanoma) of the same compound?
**A.** > 100 µM

**Q.** What about the TGI (SN12C renal) of the same compound?
**A.** 51.4 µM

**Q.** CCSCC(=O)N1CCc2c([nH]c3ccccc23)C1=O was tested. Which TGI (ACHN renal) did it give?
**A.** > 100 µM

**Q.** What about the TGI (CCRF-CEM leukemia) of the same compound?
**A.** > 100 µM

**Q.** And the TGI (COLO 205 colon)?
**A.** > 100 µM

**Q.** And the TGI (HCT-116 colon)?
**A.** > 100 µM

**Q.** What about the TGI (HS 578T breast) of the same compound?
**A.** > 100 µM

**Q.** What about the TGI (HT29 colon) of the same compound?
**A.** > 100 µM

**Q.** What about the TGI (K-562 leukemia) of the same compound?
**A.** > 100 µM

**Q.** And the TGI (M14 melanoma)?
**A.** > 100 µM

**Q.** What about the TGI (MDA-MB-231 breast) of the same compound?
**A.** > 100 µM

**Q.** And the TGI (MOLT-4 leukemia)?
**A.** > 100 µM

**Q.** What about the TGI (NCI-H460 lung) of the same compound?
**A.** > 100 µM

**Q.** And the TGI (NCI-H522 lung)?
**A.** > 100 µM

**Q.** What about the TGI (OVCAR-4 ovarian) of the same compound?
**A.** > 100 µM

**Q.** What about the TGI (OVCAR-5 ovarian) of the same compound?
**A.** > 100 µM

**Q.** What about the TGI (RXF 393 renal) of the same compound?
**A.** > 100 µM

**Q.** And the TGI (SF-295 CNS)?
**A.** > 100 µM

**Q.** What about the TGI (SK-MEL-5 melanoma) of the same compound?
**A.** > 100 µM

**Q.** What about the TGI (SN12C renal) of the same compound?
**A.** > 100 µM

**Q.** How did the TGI (ACHN renal) turn out when COc1ccc(OC)c(C(=O)/C=C/c2cc(O)c(O)cc2F)c1 was run?
**A.** > 50.3 µM

**Q.** What about the TGI (CCRF-CEM leukemia) of the same compound?
**A.** 15.7 µM

**Q.** And the TGI (COLO 205 colon)?
**A.** 31.7 µM

**Q.** And the TGI (HCT-116 colon)?
**A.** 11.5 µM

**Q.** And the TGI (HS 578T breast)?
**A.** > 100 µM

**Q.** And the TGI (HT29 colon)?
**A.** 29.3 µM

**Q.** And the TGI (K-562 leukemia)?
**A.** > 27.8 µM

**Q.** What about the TGI (M14 melanoma) of the same compound?
**A.** 19.7 µM

**Q.** What about the TGI (MDA-MB-231 breast) of the same compound?
**A.** 11.4 µM

**Q.** What about the TGI (NCI-H460 lung) of the same compound?
**A.** 9.27 µM

**Q.** What about the TGI (NCI-H522 lung) of the same compound?
**A.** 0.948 µM

**Q.** And the TGI (OVCAR-4 ovarian)?
**A.** > 90 µM

**Q.** What about the TGI (OVCAR-5 ovarian) of the same compound?
**A.** 38.9 µM

**Q.** And the TGI (RPMI-8226 leukemia)?
**A.** 7.83 µM

**Q.** And the TGI (RXF 393 renal)?
**A.** 23.5 µM

**Q.** And the TGI (SF-295 CNS)?
**A.** 9.25 µM

**Q.** And the TGI (SK-MEL-5 melanoma)?
**A.** 12.4 µM

**Q.** And the TGI (SN12C renal)?
**A.** 5.8 µM

**Q.** With O=C(O)C(F)(F)C(F)(F)C(F)(F)C(F)(F)C(=O)O as the compound, how does the TGI (ACHN renal) read?
**A.** > 100 µM

**Q.** What about the TGI (CCRF-CEM leukemia) of the same compound?
**A.** > 100 µM

**Q.** What about the TGI (COLO 205 colon) of the same compound?
**A.** > 100 µM

**Q.** What about the TGI (HCT-116 colon) of the same compound?
**A.** > 100 µM

**Q.** And the TGI (HS 578T breast)?
**A.** > 100 µM

**Q.** What about the TGI (HT29 colon) of the same compound?
**A.** > 100 µM

**Q.** And the TGI (K-562 leukemia)?
**A.** > 100 µM

**Q.** What about the TGI (M14 melanoma) of the same compound?
**A.** > 100 µM

**Q.** And the TGI (MDA-MB-231 breast)?
**A.** > 100 µM

**Q.** And the TGI (NCI-H460 lung)?
**A.** > 100 µM

**Q.** And the TGI (NCI-H522 lung)?
**A.** > 100 µM

**Q.** And the TGI (OVCAR-4 ovarian)?
**A.** > 100 µM

**Q.** And the TGI (OVCAR-5 ovarian)?
**A.** > 100 µM

**Q.** And the TGI (RPMI-8226 leukemia)?
**A.** > 100 µM

**Q.** What about the TGI (RXF 393 renal) of the same compound?
**A.** > 100 µM

**Q.** What about the TGI (SF-295 CNS) of the same compound?
**A.** > 100 µM

**Q.** And the TGI (SK-MEL-5 melanoma)?
**A.** > 100 µM

**Q.** What about the TGI (SN12C renal) of the same compound?
**A.** > 100 µM
